Assay [1] has as its system pY705-STAT3 in Peripheral Blood Mononuclear Cells (PBMC). Description: MSD-pSTAT-PBMC Assay (pSTAT3, IL-6 stimulated). The conditions noted are these: compound 3 hrs, then 10 ng/mL IL-6 for 10 min. It is filed as cell-based, Human. In a few lines: (§1)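 Phospho-STAT readout used MSD electrochemiluminescence with total STAT3 or STAT6 capture in lysates of cryopreserved human PBMCs. Cells had 3 h compound exposure before a 10 min cytokine pulse: IL-6 10 ng/mL for pSTAT3, IL-4 1 ng/mL for pSTAT6. IC50 came from background-subtracted, DMSO-normalised signal, with categories A≤100 nM up to D>3 μM.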

For assay [2], the system named is pY641-STAT6 in Peripheral Blood Mononuclear Cells (PBMC). Description: MSD-pSTAT-PBMC Assay (pSTAT6, IL-4 stimulated). It is filed as cell-based, Human. The conditions noted are these: compound 3 hrs, then 1 ng/mL IL-4 for 10 min. In a few lines:
as §1

14 compounds from patent publication US20250179103A1, “6-OXODECAHYDROPYRROLO[1,2-A][1,5]DIAZOCINE AND 6-OXODECAHYDRO-4H-PYRROLO[2,1-D][1,5]THIAZOCINE DERIVATIVES AS STAT3 AND STAT6 MODULATORS FOR THE TREATMENT OF CANCER AND INFLAMMATORY CONDITIONS” (Recludix Pharma, Inc., priority 2022, published 2025) can be followed below.

By IC50 is commonly meant the concentration at which inhibition is half-maximal. High values mean lower potency, low ones higher potency.

With `CNC(=O)[C@@H]1CC[C@@H]2CCN(C(=O)c3n[nH]c4ccc(C)cc34)C[C@H](NC(=O)c3ccc4ccc(C(F)(F)P(=O)(OCOC(=O)OC(C)C)OCOC(=O)OC(C)C)cc4c3)C(=O)N21` [Compound 328, (((difluoro(7-(((5S,8S,10aR)-3-(5-methyl-1H-indazole-3-carbonyl)-8-(methylcarbamoyl)-6-oxodecahydro-pyrrolo[1,2-a][1,5]diazocin-5-yl)carbamoyl)naphthalen-2-yl)methyl)phosphoryl)bis(oxy))bis(methylene) diisopropylbis(carbonate)], the IC50 was over 3000 nM in assay [1] (Homo sapiens) and 100 to 1000 nM in assay [2] (Homo sapiens).

`CNC(=O)[C@@H]1CC[C@@H]2CCN(C(=O)c3n[nH]c4ccc(C)cc34)C[C@H](NC(=O)c3ccc4ccc(C(F)(F)P(=O)(OCCSC(=O)CC(C)C)OCCSC(=O)CC(C)C)cc4c3)C(=O)N21` [Compound 329, S,S′-((((difluoro(7-(((5S,8S,10aR)-3-(5-methyl-1H-indazole-3-carbonyl)-8-(methylcarbamoyl)-6-oxodecahydropyrrolo[1,2-a][1,5]diazocin-5-yl)carbamoyl)naphthalen-2-yl)methyl)phosphoryl)bis(oxy))bis(ethane-2,1-diyl)) bis(3-methylbutanethioate)]: the IC50 in assay [1] (Homo sapiens) is 1000 to 3000 nM; in assay [2] (Homo sapiens), at most 100 nM.

Regarding `Cc1ccc2[nH]nc(C(=O)N3CC[C@H]4CC[C@@H](C(=O)N(C)C)N4C(=O)[C@@H](NC(=O)c4ccc5ccc(C(F)(F)P(=O)(OCCSC(=O)CC(C)C)OCCSC(=O)CC(C)C)cc5c4)C3)c2c1` [Compound 331, S,S′-(((((7-(((5S,8S,10aR)-8-(dimethylcarbamoyl)-3-(5-methyl-1H-indazole-3-carbonyl)-6-oxodecahydropyrrolo[1,2-a][1,5]diazocin-5-yl)carbamoyl)naphthalen-2-yl)difluoromethyl)phosphoryl)bis(oxy))bis(ethane-2,1-diyl))bis(3-methylbutanethioate)], the results for the IC50 in assay [1] (Homo sapiens) and in assay [2] (Homo sapiens) were over 3000 nM and at most 100 nM, respectively.

Turning to `CCCC(=O)SCCOP(=O)(OCCSC(=O)CCC)C(F)(F)c1ccc2ccc(C(=O)N[C@H]3CN(C(C)=O)CC[C@H]4CC[C@@H](C(=O)N5CC(c6cc[nH]c(=O)c6)CC56CC6)N4C3=O)cc2c1` (stereo partly drawn) [Compound 332, S,S′-(((((7-(((5S,8S,10aR)-3-acetyl-6-oxo-8-(6-(2-oxo-1,2-dihydropyridin-4-yl)-4-azaspiro[2.4]heptane-4-carbonyl)decahydropyrrolo[1,2-a][1,5]diazocin-5-yl)carbamoyl)naphthalen-2-yl)difluoromethyl)phosphoryl)bis(oxy))bis(ethane-2,1-diyl))dibutanethioate], the IC50 was over 3000 nM in assay [1] (Homo sapiens) and at most 100 nM in assay [2] (Homo sapiens).

For the compound `CCCC(=O)SCCOP(=O)(OCOC(=O)OC(C)C)C(F)(F)c1ccc2ccc(C(=O)N[C@H]3CCN(CC(F)F)C[C@H]4CC[C@@H](C(=O)N5CC(c6cc[nH]c(=O)c6)CC56CC6)N4C3=O)cc2c1` (stereo partly drawn) [Compound 334, S-(2-((((7-(((5S,8S,10aR)-2-(2,2-difluoroethyl)-6-oxo-8-(6-(2-oxo-1,2-dihydropyridin-4-yl)-4-azaspiro[2.4]heptane-4-carbonyl)decahydropyrrolo[1,2-a][1,4]diazocin-5-yl)carbamoyl)naphthalen-2-yl)difluoromethyl) (((isopropoxycarbonyl)oxy)methoxy)phosphoryl)oxy)ethyl)butanethioate], the IC50 is 100 to 1000 nM in assay [1] (Homo sapiens) and at most 100 nM in assay [2] (Homo sapiens).

For the compound `CCCC(=O)SCCOP(=O)(OCCSC(=O)CCC)C(F)(F)c1ccc2ccc(C(=O)N[C@H]3CCN(CC(F)F)C[C@H]4CC[C@@H](C(=O)N5CC(c6cc[nH]c(=O)c6)CC56CC6)N4C3=O)cc2c1` (stereo partly drawn) [Compound 335, S,S′-(((((7-(((5S,8S,10aR)-2-(2,2-difluoroethyl)-6-oxo-8-(6-(2-oxo-1,2-dihydropyridin-4-yl)-4-azaspiro[2.4]heptane-4-carbonyl)decahydropyrrolo [1,2-a][1,4]diazocin-5-yl)carbamoyl)naphthalen-2-yl)difluoromethyl)phosphoryl)bis(oxy))bis(ethane-2,1-diyl))dibutanethioate], the values for the IC50 in assay [1] (Homo sapiens) and in assay [2] (Homo sapiens) were 1000 to 3000 nM and at most 100 nM, respectively.

As for `Cc1ccc2[nH]nc(C(=O)N3CC[C@H]4CC[C@@H](C(=O)N(C)C)N4C(=O)[C@@H](NC(=O)c4cc5cc(CP(=O)(N[C@@H](C)C(=O)OC(C)C)Oc6ccccc6)ccc5s4)C3)c2c1` (stereo partly drawn) [Compound 337, isopropyl(((2-(((5S,8S,10aR)-8-(dimethylcarbamoyl)-3-(5-methyl-1H-indazole-3-carbonyl)-6-oxodecahydropyrrolo[1,2-a][1,5]diazocin-5-yl)carbamoyl)benzo [b]thiophen-5-yl)methyl)(phenoxy)phosphoryl)-L-alaninate], the IC50 in assay [1] (Homo sapiens) and in assay [2] (Homo sapiens) was over 3000 nM in each case.

Take `CC(C)(C)C(=O)OCOP(=O)(OCOC(=O)C(C)(C)C)C(F)(F)c1ccc2ccc(C(=O)NC3CN(CC(F)F)CCC4CCC(C(=O)N5CC(C#N)C(c6cc(F)cc(F)c6)C5)N4C3=O)cc2c1` [Compound 344, ((((7-(((5S,8S,10aR)-8-((rel-trans)-3-cyano-4-(3,5-difluorophenyl)pyrrolidine-1-carbonyl)-3-(2,2-difluoroethyl)-6-oxodecahydropyrrolo[1,2-a][1,5]diazocin-5-yl)carbamoyl)naphthalen-2-yl)difluoromethyl)phosphoryl)bis(oxy)) bis(methylene) bis(2,2-dimethylpropanoate)]: the values for the IC50 in assay [1] and in assay [2] were 1000 to 3000 nM and 100 to 1000 nM, respectively.

Turning to `CC(C)(C)C(=O)OCOP(=O)(OCOC(=O)C(C)(C)C)C(F)(F)c1ccc2ccc(C(=O)NC3CN(CC(F)F)CCC4CCC(C(=O)N5CCC(c6ccccc6)C(C#N)C5)N4C3=O)cc2c1` [Compound 345, ((((7-(((5S,8S,10aR)-8-((rel-trans)-3-cyano-4-phenylpiperidine-1-carbonyl)-3-(2,2-difluoroethyl)-6-oxodecahydropyrrolo[1,2-a][1,5]diazocin-5-yl)carbamoyl)naphthalen-2-yl)difluoromethyl)phosphoryl)bis(oxy)) bis(methylene) bis(2,2-dimethylpropanoate)], the IC50 in assay [1] is 1000 to 3000 nM; in assay [2] it was 100 to 1000 nM.

As to `CCCC(=O)SCCOP(=O)(OCCSC(=O)CCC)C(F)(F)c1ccc2ccc(C(=O)N[C@H]3CN(CC(F)F)CC[C@H]4CC[C@@H](C(=O)N(C)C5CCN(S(C)(=O)=O)CC5)N4C3=O)cc2c1` [Compound 347, S,S′-(((((7-(((5S,8S,10aR)-3-(2,2-difluoroethyl)-8-(methyl(1-(methylsulfonyl)piperidin-4-yl)carbamoyl)-6-oxodeca hydropyrrolo[1,2-a][1,5]diazocin-5-yl)carbamoyl)naphthalen-2-yl)difluoromethyl)phosphoryl)bis(oxy))bis(ethane-2,1-diyl))dibutanethioate], the IC50 in assay [1] (Homo sapiens) and in assay [2] (Homo sapiens) was 100 to 1000 nM in each case.

For the compound `CC(C)(C)C(=O)OCOP(=O)(OCOC(=O)C(C)(C)C)C(F)(F)c1ccc2sc(C(=O)N[C@H]3CN(CC(F)F)CC[C@H]4CC[C@@H](C(=O)N5CC(C(=O)N6CCOCC6)C5)N4C3=O)cc2c1` [Compound 350, ((((2-(((5S,8S,10aR)-3-(2,2-difluoroethyl)-8-(3-(morpholine-4-carbonyl)azetidine-1-carbonyl)-6-oxodecahydropyrrolo[1,2-a][1,5]diazocin-5-yl)carbamoyl)benzo[b]thiophen-5-yl)difluoromethyl)phosphoryl)bis (oxy))bis(methylene) bis(2,2-dimethylpropanoate)], the IC50 in assay [1] (Homo sapiens) was at most 100 nM; in assay [2] it was 100 to 1000 nM.

Regarding `CC(C)(C)C(=O)OCOP(=O)(OCOC(=O)C(C)(C)C)C(F)(F)c1ccc2sc(C(=O)N[C@H]3CN(CC(F)F)CC[C@H]4CC[C@@H](C(=O)N5CC(C(=O)N6CCOCC6)C5)N4C3=O)cc2c1` [Compound 351, ((((2-(((5S,8S,10aR)-3-(2,2-difluoroethyl)-8-(3-(morpholine-4-carbonyl)azetidine-1-carbonyl)-6-oxodecahydropyrrolo[1,2-a][1,5]diazocin-5-yl)carbamoyl)benzo[b]thiophen-5-yl)difluoromethyl)phosphoryl)bis (oxy))bis(methylene) bis(2,2-dimethylpropanoate)], the IC50 in assay [1] was at most 100 nM; in assay [2] it was 1000 to 3000 nM.

`CN(CC(C)(C)C#N)C(=O)[C@@H]1CC[C@@H]2CCN(CC(F)F)C[C@H](NC(=O)c3cc4cc(C(F)(F)P(=O)(OCOC(=O)C(C)(C)C)OCOC(=O)C(C)(C)C)ccc4s3)C(=O)N21` [Compound 352, ((((2-(((5S,8S,10aR)-8-((2-cyano-2-methylpropyl)(methyl)carbamoyl)-3-(2,2-difluoroethyl)-6-oxodecahydropyrrolo[1,2-a][1,5]diazocin-5-yl)carbamoyl)benzo[b]thiophen-5-yl)difluoromethyl)phosphoryl)bis (oxy))bis(methylene) bis(2,2-dimethylpropanoate)]: the IC50 in assay [1] (Homo sapiens) and in assay [2] (Homo sapiens) was at most 100 nM throughout.

In the case of `CCN1CC[C@H]2CC[C@@H](C(=O)N3CC(C(=O)N4CCOCC4)C3)N2C(=O)[C@@H](NC(=O)c2cc3cc(C(F)(F)P(=O)(OCOC(=O)C(C)(C)C)OCOC(=O)C(C)(C)C)ccc3s2)C1` [Compound 353, ((((2-(((5S,8S,10aR)-3-ethyl-8-(3-(morpholine-4-carbonyl)azetidine-1-carbonyl)-6-oxodecahydropyrrolo[1,2-a][1,5]diazocin-5-yl)carbamoyl)benzo[b]thiophen-5-yl)difluoromethyl)phosphoryl)bis(oxy)) bis(methylene) bis(2,2-dimethylpropanoate)], the IC50 in assay [1] (Homo sapiens) was at most 100 nM; in assay [2] (Homo sapiens) it was over 3000 nM.
